Where a SMILES comes first, the peptide text is derived from it. [ ]: non-standard residue; d: D form. The star is where a group is joined. pNA = O=[N+]([O-])c1ccc(N*)cc1

Test [1] has as its target T1, Human tissue plasminogen activator (tPA) (Two chains, Sigma) (Homo sapiens, UniProt P00750).
T1 construct: purchased Sigma
Kind of test: In vitro chromogenic assay for tissue plasminogen activator. To be noted: substrate concentration stated equal to Km under the present assay conditions; pH 7.5, ambient temperature; read-out: Km (S2288). It counts as biochemical. As for the experimental part:
(§1) The activities were determined as an initial rate of cleavage of the peptide p-nitroanilide by the enzyme. The cleavage product, p-nitroaniline, absorbs at 405 nm with a molar extinction coefficient of 9920M^-1 cm^-1.
(§2) 50 mM Tris HCl, 150 mM NaCl, 2.5 mM CaCl2, and
3. Human tissue plasminogen activator (tPA) (Two chains, Sigma) stock solution: 1 mg/mL, stored at -80° C. (working solution (2×): 1361 ng/mL in assay buffer, prepare prior to use).
3. S2288 (tPA assay) stock solution: 10 mM in deionized H2 O, stored at 4° C. (working solution (4×): 1484 μM in assay buffer).
(§3) Assays were performed in 96-well microtiter plates in a total volume of 200 μl. […] Concentrations of the standard inhibitor compound in the assay were from 5 μM to 0.021 μM in 1 to 3 dilution. Concentration of the test compounds in the assay typically were from 10 μM to 0.041 μM in 1 to 3 dilution. For potent test compounds, the concentrations used in the factor Xa assay were further diluted 100 fold (100 nM to 0.41 nM) or 1000 fold (10 nM to 0.041 nM). […]
(§4) The enzyme kinetics were measured at 405 nm at 10 seconds intervals for five minutes in a THERMOmax plate reader at ambient temperature.
(§5) Enzyme rates were calculated as mOD/min based on the first two minutes readings. The IC50 values were determined by fitting the data to the log-logit equation (linear) or the Morrison equation (non-linear) with an EXCEL spread-sheet. […]

A further test addresses T2, Human thrombin (Homo sapiens, UniProt P00734).
T2 construct: forms the prothrombinase complex which converts prothrombin to thrombin; purchased Enzyme Research Lab
Briefly: In vitro chromogenic assay for thrombin. It counts as biochemical. Conditions: substrate concentration stated equal to Km under the present assay conditions; pH 7.5, ambient temperature; read-out: Km (S2302). As for the experimental part: as §1, §2
2. Human thrombin stock solution: Stored at -80° C. (working solution (2×): 1200 ng/mL or 40 nM in assay buffer, prepare prior to use).
2. S2302 (Thrombin assay) stock solution: 10 mM in deionized H2 O, stored at 4° C. (working solution (4×): 1200, μM in assay buffer).
as §3, §4, §5

T1 sequence (P00750 311-562 limits assumed): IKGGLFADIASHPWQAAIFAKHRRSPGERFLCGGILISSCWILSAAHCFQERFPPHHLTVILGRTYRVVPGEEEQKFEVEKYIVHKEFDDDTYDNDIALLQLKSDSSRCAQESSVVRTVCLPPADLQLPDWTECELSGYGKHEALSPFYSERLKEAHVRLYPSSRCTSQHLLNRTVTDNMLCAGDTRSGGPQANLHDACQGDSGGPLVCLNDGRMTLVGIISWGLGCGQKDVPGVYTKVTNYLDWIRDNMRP
T1 sequence (P00750 36-310 partner limits assumed): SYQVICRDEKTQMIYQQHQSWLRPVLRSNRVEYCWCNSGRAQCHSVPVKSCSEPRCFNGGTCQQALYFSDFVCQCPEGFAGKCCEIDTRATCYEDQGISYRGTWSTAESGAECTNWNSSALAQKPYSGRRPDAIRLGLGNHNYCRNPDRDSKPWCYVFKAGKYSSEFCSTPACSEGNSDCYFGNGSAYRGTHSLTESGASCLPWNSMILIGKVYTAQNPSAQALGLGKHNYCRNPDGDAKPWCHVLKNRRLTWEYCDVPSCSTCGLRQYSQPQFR

One may read the Km as the substrate concentration at which the rate is half of its maximum. `CC[C@@H](C)[C@@H](N)C(=O)N1CCC[C@H]1C(=O)N[C@@H](CCCN=C(N)N)C(=O)Nc1ccc([N+](=O)[O-])cc1` [Example S2288] (H-[dI]-Pro-Arg-pNA): the Michaelis constant (Km) in test [1] came to 371 µM.

As to `N=C(N)NCCC[C@H](NC(=O)[C@H](Cc1ccccc1)NC(=O)[C@H]1CCCN1)C(=O)Nc1ccc([N+](=O)[O-])cc1` [Example S2302] (H-[dP]-Phe-Arg-pNA), at Human thrombin, the Michaelis-Menten constant (Km) amounted to 300 µM.

The record behind these values is patent US6150382A, “Thio acid derived monocyclic n-heterocyclics as anticoagulants” (Berlex Laboratories, Inc., priority 1999, dated 2000).
